Literature values, collected in patent US20080275015A1, “Formulation and Method for Treating Interstitial Cystitis and Related Bladder Conditions” (priority 2007, published 2008).

Details: oral prescription for interstitial cystitis; standard dosing 100 mg three times daily

pentosan polysulfate sodium [Elmiron]
cases in which treatment has been shown to be effective: 30%
